Biological target: p62^cplx-associated PI3-kinase (100-kD catalytic subunit)
Assay: PI3-kinase lipid kinase assay
Type: biochemical, Rattus norvegicus

Q: With `COC[C@H]1OC(=O)c2coc3c2[C@@]1(C)C1=C(C3=O)[C@@H]2CCC(=O)[C@@]2(C)C[C@H]1OC(C)=O` [wortmannin] as the compound, how does the IC50 read?
A: ~3.5 µM

Reference: article PMC2139785 (The Journal of Cell Biology, 1997)
